Reference: patent publication US20100311912A1, “ANTIMICROBIAL SURFACES” (priority 2008, published 2010)
Converted amounts (≈) assume the structure as drawn. Where two headings read alike, the source gives them in different places.

Experiments:
Type in all cases: cell-based
[1] = tested on: Staphylococcus aureus ATCC 29213; test: Broth micro dilution assay for MIC and MBC; conditions: S. aureus ATCC 29213
Procedure: All bacteria were grown on blood agar plates (Colombia agar-CM331, Oxoid Limited, Basingstoke, Hampshire, United Kingdom) supplemented with 5% v/v sheep blood) at 37° C. The Streptococcus species were incubated at 37° C. in the presence of 5% carbon dioxide (CO2).
Duplicate two-fold serial dilutions of test sample (100 μL/well) were prepared in sterile round-bottom 96-well plates (Sarstedt Australia Pty Ltd, Technology Park, SA, Australia), in the appropriate broth containing 2% DMSO. Bacterial cell suspension (100 μL) corresponding to 1×10^6 CFU/mL was added in all wells with the exception of wells containing saline, test sample and media sterility controls, respectively. Controls for bacterial growth without test sample were also included on each plate. Plates were then placed on a shaker for 10 min and incubated at 37° C. overnight. […] Vancomycin and gentamicin (Sigma, St Louis, Mo., United States of America) were used as positive controls for the Gram-positive and Gram-negative bacteria, respectively. Following the determination of the MIC, the MBC was determined by transferring a 10 μL aliquot from each of the wells at the concentration corresponding to the MIC and those concentrations above into 190 μL of appropriate broth in a sterile 96-well plate. […] The presence or absence of bacterial growth was determined by visual inspection. The MBC was considered to be the lowest concentration of the compound at which no growth occurred.

[2] = tested on: Streptococcus pyogenes ATCC 10389; test: Broth micro dilution assay for MIC and MBC; conditions: ATCC10389, S. pyogenes ATCC 10389
Procedure: (§1) Staphylococcus aureus ATCC 29213 obtained from stock cultures stored at −70° C. at the Sansom Institute (University of South Australia, Adelaide, SA, Australia) was used as the test microorganism in a bioassay guided fractionation process. […] All bacteria were grown on blood agar plates (Colombia agar-CM331, Oxoid Limited, Basingstoke, Hampshire, United Kingdom) supplemented with 5% v/v sheep blood) at 37° C. The Streptococcus species were incubated at 37° C. in the presence of 5% carbon dioxide (CO2). Brain Heart Infusion broth (CM 225, Oxoid Limited) was used for the experiments to determine the minimum inhibitory concentration (MIC) and minimum bactericidal concentration (MBC) for the Streptococcus species while cation adjusted MH II broth (Becton Dickinson France SAS, Le Point de Claix, France) was used for the Staphylococcus species and the Gram-negative bacteria tested.
(§2) Broth micro dilution was used to determine the MIC of extract, fractions and pure compounds against S. aureus ATCC 29213. Duplicate two-fold serial dilutions of test sample (100 μL/well) were prepared in sterile round-bottom 96-well plates (Sarstedt Australia Pty Ltd, Technology Park, SA, Australia), in the appropriate broth containing 2% DMSO. Bacterial cell suspension (100 μL) corresponding to 1×10^6 CFU/mL was added in all wells with the exception of wells containing saline, test sample and media sterility controls, respectively. Controls for bacterial growth without test sample were also included on each plate. Plates were then placed on a shaker for 10 min and incubated at 37° C. overnight. […] Vancomycin and gentamicin (Sigma, St Louis, Mo., United States of America) were used as positive controls for the Gram-positive and Gram-negative bacteria, respectively. Following the determination of the MIC, the MBC was determined by transferring a 10 μL aliquot from each of the wells at the concentration corresponding to the MIC and those concentrations above into 190 μL of appropriate broth in a sterile 96-well plate. The plates were incubated under the same conditions as in the MIC experiment with the Streptococcus species incubated in the presence of 5% CO2. The presence or absence of bacterial growth was determined by visual inspection. The MBC was considered to be the lowest concentration of the compound at which no growth occurred.

[3] = tested on: Staphylococcus aureus ATCC 25923; test: Broth micro dilution assay for MIC and MBC; conditions: ATCC25923, S. aureus ATCC 25923
Procedure: as §1, §2

[4] = tested on: Streptococcus pneumoniae ATCC 49619; test: Broth micro dilution assay for MIC and MBC; conditions: ATCC49619, S. pneumoniae ATCC 49619
Procedure: as §1, §2

[5] = tested on: Pseudomonas aeruginosa ATCC 27853; test: Broth micro dilution assay for MIC and MBC; conditions: ATCC27853, P. aeruginosa ATCC 27853, maximum concentration tested 250 μg/mL
Procedure: as §1, §2

[6] = tested on: Escherichia coli ATCC 25922; test: Broth micro dilution assay for MIC and MBC; conditions: ATCC25922, E. coli ATCC 25922, maximum concentration tested 250 μg/mL
Procedure: as §1, §2

[7] = tested on: Salmonella typhimurium ATCC 13311; test: Broth micro dilution assay for MIC and MBC; conditions: Salmonella enterica; S. typhimurium ATCC 13311; maximum concentration tested 250 μg/mL
Procedure: as §1, §2

[8] = tested on: Gram-negative bacteria tested; test: Broth micro dilution assay, Gram-negative bacteria; conditions: all Gram-negative bacteria tested, maximum concentrations tested
Procedure: as §1
Broth micro dilution was used to determine the MIC of extract, fractions and pure compounds against S. aureus ATCC 29213. […] Following the determination of the MIC, the MBC was determined by transferring a 10 μL aliquot from each of the wells at the concentration corresponding to the MIC and those concentrations above into 190 μL of appropriate broth in a sterile 96-well plate. […] The presence or absence of bacterial growth was determined by visual inspection. […]

[9] = tested on: Gram-positive bacteria including S. aureus, S. pyogenes and S. pneumoniae; test: Broth micro dilution assay, Gram-positive bacteria; conditions: for antimicrobial activity against other Gram-positive bacteria: S. aureus (ATCC 25925), S. pyogenes, S. pneumoniae, values not shown
Procedure: as §1, §2

[10] = range over Gram-positive bacteria of Table 2

“8,20-diacetoxyserrulat-14-en-19-oic acid [Compound 5]” gave an MIC [1] of 250 µg/mL.
“8,20-dihydroxyserrulat-14-en-19-oic acid [Compound 4]” gave an MIC [1] of 250 µg/mL.
Work on CC(C)=CCCC1COC2=C(C)C(=O)C(=O)c3cccc1c32 (stereo not shown) [Compound 2, 9-methyl-3-(4-methyl-3-pentenyl)-2,3-dihydronaphtho[1,8-bc]pyran-7,8-dione] yielded an MBC [2] of 15.6 µg/mL (≈ 52.6 µM), an MIC [2] of 7.8 µg/mL (≈ 26.3 µM) and an MBC [3] of 15.6 µg/mL (≈ 52.6 µM). The MIC [3] was 7.8 µg/mL (≈ 26.3 µM), the MBC [4] was 7.8 µg/mL (≈ 26.3 µM) and the MIC [4] was 7.8 µg/mL (≈ 26.3 µM). For the same molecule, the MBC [5] was over 250 µg/mL, the MIC [5] was over 250 µg/mL and the MBC [6] was over 250 µg/mL. The MIC [6] was over 250 µg/mL, the MBC [7] was over 250 µg/mL and the MIC [7] was over 250 µg/mL. The MBC ([1]; Staphylococcus aureus, ATCC29213) was 125 µg/mL (≈ 422 µM), the MIC ([1]; Staphylococcus aureus, ATCC29213, read-out: MIC) was 15.6 µg/mL (≈ 52.6 µM) and the “activity against Gram-negative bacteria” value [8] was “Activity was not observed”. The MBC [9, 10] was 7.8 to 125 µg/mL (≈ 26.3 to 422 µM) and the MIC [9, 10] was 7.8 to 15.6 µg/mL (≈ 26.3 to 52.6 µM).
CC(=O)OCC(CCC=C(C)C)C1CCC(C)c2ccc(C(=O)O)c(O)c21 (stereo not shown) [Compound 3, 20-acetoxy-8-hydroxyserrulat-14-en-19-oic acid] was tested, and the MIC [1] was 125 µg/mL (≈ 334 µM).
CC(C)=CCCC(C)C1CCC(C)c2cc(CO)c(O)cc21 (stereo not shown) [Compound 7, 8,19-dihydroxyserrulat-14-ene] was tested, and the “antimicrobial activity against other Gram-positive bacteria” value [9] was “showed antimicrobial activity”.
In the case of CC(C)=CCCC(C)C1CCC(C)c2cc(C(=O)O)c(O)cc21 (stereo not shown) [Compound 8, 8-hydroxyserrulat-14-en-19-oic acid], the “antimicrobial activity against other Gram-positive bacteria” value [9] is reported as “showed antimicrobial activity”.
